Data on 3 compounds can be found in patent US5589485A, “Dorrigocin antitumor agents” (priority 1995, dated 1996).

≈ marks a conversion by molar mass, not a printed value. Like-named read-outs stand apart in the source and are kept apart here.

Data set [1] has as its system Fusarium moniliforme AARC 0397. The data set is described as follows: In vitro antifungal activity, agar dilution MIC. Type of data set: cell-based. The note with it: Fusarium verticillioides. The protocol:
(§1) Minimal inhibitory concentrations (MICs) were determined by an agar dilution method. The test compounds were serially diluted in MeOH and 0.2 ml portions were mixed with 20 ml of molten, cooled Sabouraud dextrose agar (Difco). Yeast cell inoculum was prepared by growing cultures on Sabouraud dextrose agar for 18 hours at 32° C. and suspending the cells in phosphate buffered saline. Filamentous fungi were grown under the same conditions for 4 days to obtain spores. The inoculum level for all cultures was adjusted to 10^4 cells using a Petroff-Hauser cell counter. The glutarimide antifungal compound cycloheximide was used as a control. Inoculated test plates were incubated at 32° C. and examined after 20 hours.
For orientation: Agar dilution tests growth on a series of plates holding different concentrations.

For a further data set, the system named is F. solani AARC 0353. The data set is described as follows: In vitro antifungal activity, agar dilution MIC. The note with it: Fusarium solani. Type of data set: cell-based. The protocol: as §1
Data set [2] has as its system Aspergillus niger ATCC 16404. The data set is described as follows: In vitro antifungal activity, agar dilution MIC. Type of data set: cell-based. The protocol: as §1
In data set [3] the test system is Candida albicans ATCC 10231. The data set is described as follows: In vitro antifungal activity, agar dilution MIC. Type of data set: cell-based. The protocol: as §1
Data set [4] has as its system Saccharomyces cereviseae GS1-36. The data set is described as follows: In vitro antifungal activity, agar dilution MIC. Type of data set: cell-based. As to the method:
as §1

In the next data set the test system is A. fumigatus ATCC 26430. The data set is described as follows: In vitro antifungal activity, agar dilution MIC. Type of data set: cell-based. The note with it: Aspergillus fumigatus. As to the method:
as §1

Data set [5] concerns Candida albicans ATCC 38247. The data set is described as follows: In vitro antifungal activity, agar dilution MIC. Type of data set: cell-based. The protocol: as §1
A further data set deals with A. flavus NRRL 6541. The data set is described as follows: In vitro antifungal activity, agar dilution MIC. Type of data set: cell-based. The note with it: Aspergillus flavus. The protocol: as §1
The subject of data set [6] is Torulopsis glabrata ATCC 15545. The data set is described as follows: In vitro antifungal activity, agar dilution MIC. To be noted: Nakaseomyces glabratus. Type of data set: cell-based. As to the method:
as §1

The subject of data set [7] is A. parasiticus NRRL 13539. The data set is described as follows: In vitro antifungal activity, agar dilution MIC. Type of data set: cell-based. To be noted: Aspergillus parasiticus. The protocol: as §1
The test system of data set [8] is Candida tropicalis NRRL-Y-112. The data set is described as follows: In vitro antifungal activity, agar dilution MIC. Type of data set: cell-based. As to the method:
as §1

The next data set deals with Candida albicans 579A. The data set is described as follows: In vitro antifungal activity, agar dilution MIC. Type of data set: cell-based. As to the method:
as §1

Another data set is described as follows: Solubility. Type of data set: physicochemical.
Data set [9] has as its system K-ras-transformed NIH/3T3 mouse fibroblasts. The data set is described as follows: In vitro antitumor activity: transformed foci / morphology reversion. Type of data set: cell-based. The note with it: for activity at 0.4 µg/mL: compound dose 0.4 μg/ml; for morphology reversion of transformed cells: microscopic examination. As to the method: Transformed cells are typically rounded when the mutant ras gene is expressed. Normal cells, on the other hand, are flat and adhere to the bottom of a tissue culture plate.
Normal and transformed NIH/3T3 cells were cultured in Dulbecco's modified Eagle medium containing 10% fetal bovine serum, and gentamicin 50 μg/ml at 37° C. in 5% CO2. Ras transformants also contained […] G418. To test the effect of Dorrigocins, 2×10^4 cells were added to 24 well microtiter plates and incubated for 24 hours at 37° C. when the cells had uniformly adhered to the microtiter tray, various concentrations of Dorrigocin A and B dissolved in DMSO, were added and the plates incubated at 37° C. for an additional 48 hours. Cellular morphology was examined microscopically and the average number of transformed foci per field was determined by counting at least 6 separate fields. These foci represent transformed cells that were unaffected by the addition of compound.

The mark [10] stands for this setting: AARC0397, Sabouraud dextrose agar, 32° C., 20 hours, read-out: MIC.
The mark [11] stands for this setting: AARC0353, Sabouraud dextrose agar, 32° C., 20 hours, read-out: MIC.
The mark [12] stands for this setting: ATCC16404, Sabouraud dextrose agar, 32° C., 20 hours, read-out: MIC.
Where [13] appears, read: ATCC10231, Sabouraud dextrose agar, 32° C., 20 hours, read-out: MIC.
The mark [14] stands for this setting: GS136, Sabouraud dextrose agar, 32° C., 20 hours, read-out: MIC.
The mark [15] stands for this setting: ATCC26430, Sabouraud dextrose agar, 32° C., 20 hours, read-out: MIC.
Where [16] appears, read: ATCC38247, Sabouraud dextrose agar, 32° C., 20 hours, read-out: MIC.
The mark [17] stands for this setting: NRRL6541, Sabouraud dextrose agar, 32° C., 20 hours, read-out: MIC.
Where [18] appears, read: ATCC15545, Sabouraud dextrose agar, 32° C., 20 hours, read-out: MIC.
[19] abbreviates: NRRL13539, Sabouraud dextrose agar, 32° C., 20 hours, read-out: MIC.
The mark [20] stands for this setting: NRRLY112, Sabouraud dextrose agar, 32° C., 20 hours, read-out: MIC.
Where [21] appears, read: Sabouraud dextrose agar, 32° C., 20 hours, read-out: MIC.
Setting [22] is: Mus musculus, NIH3T3, 48 hours, untreated NIH/3T3 K-ras = 100, read-out: Transformed foci percentage.

As for `C[C@@H]1C[C@@H]([C@H](O)CC2CC(=O)NC(=O)C2)C(=O)[C@@H](C)C1` [Cycloheximide, cycloheximide, reference compound], the MIC (in general, the lowest concentration that inhibits growth of the organism) in [1] (AARC0397, 20 h) was 0.8 µg/mL (≈ 2.84 µM); with F. solani AARC 0353 (AARC0353, 20 h) it was 0.8 µg/mL (≈ 2.84 µM); in data set [2] (ATCC16404, 20 h), 1.6 µg/mL (≈ 5.69 µM); in [3] (ATCC10231, 20 h) it was more than 100 µg/mL; in [4] (GS136, 20 h), less than 0.05 µg/mL; with A. fumigatus ATCC 26430 (ATCC26430, 20 h), 1.6 µg/mL (≈ 5.69 µM). Also, the MIC was more than 100 µg/mL in [5] (ATCC38247, 20 h); 50 µg/mL (≈ 178 µM) with A. flavus NRRL 6541 (NRRL6541, 20 h); 0.4 µg/mL (≈ 1.42 µM) in data set [6] (ATCC15545, 20 h); 25 µg/mL (≈ 88.9 µM) in [7] (NRRL13539, 20 h); 0.4 µg/mL (≈ 1.42 µM) in data set [8] (NRRLY112, 20 h); more than 100 µg/mL against Candida albicans 579A (20 h).
Consider `COC(C=CCCC=CC(=O)O)C(O)C(C)C=C(C)C(O)C(C)C(=O)CCCC1CC(=O)NC(=O)C1` (stereo not drawn) [Dorrigocin A], for which the “solubility in methanol and dimethylsulfoxide” value in “Solubility” is “readily soluble in methanol and dimethylsulfoxide”. Besides, the MIC was 100 µg/mL (≈ 197 µM) in [1] (setting [10]); 25 µg/mL (≈ 49.2 µM) with F. solani AARC 0353 (setting [11]); 25 µg/mL (≈ 49.2 µM) in data set [2] (setting [12]); more than 100 µg/mL in [3] (setting [13]); more than 100 µg/mL in data set [4] (setting [14]); 25 µg/mL (≈ 49.2 µM) with A. fumigatus ATCC 26430 (setting [15]). Also, the MIC (in [5] (setting [16]); with A. flavus NRRL 6541 (setting [17]); in data set [6] (setting [18]); in data set [7] (setting [19]); in [8] (setting [20]); with Candida albicans 579A (setting [21])) was more than 100 µg/mL each time. Moreover, the “dose dependence of morphology reversion” value in [9] (48 hours) is reported as “dose-dependent”. For the same compound, in [9] (Dorrigocin A compared with Dorrigocin B), the “relative effectiveness in morphology reversion and reduction in the number of foci” value is recorded as “more effective than Dorrigocin B”. For the same compound, the activity at 0.08 µg/mL in data set [9] (Mus musculus, NIH3T3, compound dose 0.08 μg/ml, 48 hours, untreated NIH/3T3 K-ras = 100, read-out: Transformed foci percentage) is 76%. For the same compound, the activity at 0.4 µg/mL in data set [9] (setting [22]) came to 26%. In data set [9] (Mus musculus, NIH3T3, compound dose 10 μg/ml, 48 hours, untreated NIH/3T3 K-ras = 100, read-out: Transformed foci percentage), the activity at 10 µg/mL is 22%. For the same compound, the “morphology reversion of transformed cells” value in data set [9] (48 hours) is listed as “caused transformed cells to revert to a morphology resembling that of normal cells”.
Consider `COC(C=CCCC=CC(=O)O)C(O)C(C)C(O)C(C)=CC(C)C(=O)CCCC1CC(=O)NC(=O)C1` (stereo not drawn) [Dorrigocin B], for which the “solubility in methanol and dimethylsulfoxide” value in “Solubility” was “readily soluble in methanol and dimethylsulfoxide”. The MIC is 50 µg/mL (≈ 98.5 µM) in data set [1] (setting [10]); 25 µg/mL (≈ 49.2 µM) with F. solani AARC 0353 (setting [11]); 12.5 µg/mL (≈ 24.6 µM) in [2] (setting [12]); more than 100 µg/mL in [3] (setting [13]); more than 100 µg/mL in data set [4] (setting [14]); 12.5 µg/mL (≈ 24.6 µM) with A. fumigatus ATCC 26430 (setting [15]). Further, the MIC in [5] (setting [16]) is more than 100 µg/mL; in the data set with A. flavus NRRL 6541 (setting [17]) it was 100 µg/mL (≈ 197 µM); in data set [6] (setting [18]), more than 100 µg/mL; in data set [7] (setting [19]) it was 100 µg/mL (≈ 197 µM); in data set [8] (setting [20]), more than 100 µg/mL; with Candida albicans 579A (setting [21]), more than 100 µg/mL. Besides, the “dose dependence of morphology reversion” value in [9] (48 hours) is listed as “dose-dependent”. In addition, in [9] (Mus musculus, NIH3T3, 48 h, read-out: Transformed foci percentage), the activity at 10 µg/mL amounted to 7%. For the same compound, in data set [9] (setting [22]), the activity at 0.4 µg/mL turned out to be 96%. Besides, the “morphology reversion of transformed cells” value in [9] (48 hours) is on record as “caused transformed cells to revert to a morphology resembling that of normal cells”.
